From patent US7468375B2 (Pfizer Inc., priority 2004, dated 2008)
Read-outs that look alike come from different tables or passages of the source.

How the values were obtained:
[1] = target: T1, Full-length wild type HIV-1 integrase (SF1) (Human immunodeficiency virus type 1 group M subtype B, UniProt P04585); experiment: Integrase strand-transfer scintillation proximity assay; assay type: biochemical; details: 50 min at 37° C., 246 nM integrase, 50 nM host DNA
T1 construct: made in house; host or cells: E. coli BL21 (DE3)
Source text: Integrase Strand-Transfer Scintillation Proximity Assay Oligonucleotides
Oligonucleotide #1-5′-(biotin)[…]-3′ (SEQ ID NO: 1) and oligonucleotide #2-5′-[…]-3′ (SEQ ID NO: 2), were synthesized by TriLink BioTechnologies, Inc. (San Diego, Calif.). The annealed product represents preprocessed viral ds-DNA derived from the LTR U5 sequence of the viral genome. A ds-DNA control to test for non-specific interactions was made using a 3′ di-deoxy derivative of oligonucleotide #1 annealed to oligonucleotide #2. The CA overhang at the 5′ end of the non-biotinylated strand of the ds-DNA was created artificially by using a complimentary DNA oligonucleotide shortened by 2 base pairs. This configuration eliminates the requisite 3′ processing step of the integrase enzyme prior to the strand-transfer mechanism. Host ds-DNA was prepared as an unlabeled and [^3H]-thymidine labeled product from annealed oligonucleotide #3-5-[…]-3′ (SEQ ID NO: 3), and oligonucleotide #4-5′-[…]-3′ (SEQ ID NO: 4), both synthesized by TriLink BioTechnologies, Inc. (San Diego, Calif.). The annealed product had overhanging 3′ ends of poly(dA). Host DNA was custom radiolabeled by PerkinElmer Life Sciences Inc. (Boston, Mass.) using an enzymatic method with a 12/1 ratio of [methyl-3H]dTTP/cold ds-DNA to yield 5′-blunt end ds-DNA with a specific activity of >900 Ci/mmol. The radiolabeled product was purified using a NENSORB cartridge and stored in stabilized aqueous solution (PerkinElmer). The final radiolabeled product had six [^3H]-thymidine nucleotides at both 5′ ends of the host ds-DNA. Reagents: Streptavidin-coated polyvinyltoluene (PVT) SPA beads were purchased from Amersham Biosciences (Piscataway, N.J.). Cesium chloride was purchased from Shelton Scientific, Inc. (Shelton, Conn.). White, polystyrene, flat-bottom, non-binding surface, 96-well plates were purchased from Corning. All other buffer components were purchased from Sigma (St. Louis, Mo.) unless otherwise indicated.
Enzyme Construction: Full-length wild type HIV-1 integrase (SF1) sequence (amino acids 1-288) was constructed in a pET24a vector (Novagen, Madison, Wis.). The construct was confirmed through DNA sequencing. Enzyme Purification: Full length wild-type HIV Integrase was expressed in E. coli BL21 (DE3) cells and induced with 1 mM isopropyl-1 thio-β-D-galactopyranoside (IPTG) when cells reached an optical density between 0.8-1.0 at 600 nm. Cells were lysed by microfluidation in 50 mM HEPES pH 7.0, 75 mM NaCl, 5 mM DTT, 1 mM 4-(2-Aminoethyl)benzenesulfonylfluoride HCl (AEBSF). Lysate was then centrifuged 20 minutes at 11 k rpm in GSA rotor in Sorvall RC-5B at 4° C. Supernant was discarded and pellet resuspended in 50 mM HEPES pH 7.0, 750 mM NaCl, 5 mM DTT, 1 mM AEBSF and homogenized in a 40 mL Dounce homogenizer for 20 minutes on ice. Homogenate was then centrifuged 20 minutes at 11 k rpm in SS34 rotor in Sorvall RC-5B at 4° C. Supernant was discarded and pellet resuspended in 50 mM HEPES pH 7.0, 750 mM NaCl, 25 mM CHAPS, 5 mM DTT, 1 mM AEBSF. Preparation was then centrifuged 20 minutes at 11 k rpm in SS34 rotor in Sorvall RC-5B at 4° C. Supernant was then diluted 1:1 with 50 mM HEPES pH 7.0, 25 mM CHAPS, 1 mM DTT, 1 mM AEBSF and loaded onto a Q-Sepharose column pre-equilibrated with 50 mM HEPES, pH 7.0, 375 mM NaCl, 25 mM CHAPS, 1 mM DTT, 1 mM AEBSF. The flow through peak was collected and NaCl diluted to 0.1 M with 50 mM HEPES pH 7.0, 25 mM CHAPS, 1 mM DTT, 0.5 mM AEBSF and loaded onto a SP-Sepharose column pre-equilibrated with 50 mM HEPES pH 7.0, 100 mM NaCl, 25 mM CHAPS, 1 mM DTT, 0.5 mM AEBSF. After washing the column with the equilibration buffer, a 100 to 400 mM NaCl gradient was run. The eluted integrase was concentrated and run on a S-300 gel diffusion column using 50 mM HEPES pH 7.0, 500 mM NaCl, 25 mM CHAPS, 1 mM DTT, 0.5 mM AEBSF. The peak from this column was concentrated to 0.76 mg/mL and stored at −70° C. and later used for strand transfer assays. […]

[2] = test system: RF strain of HIV-1 in CEM-SS cells; experiment: HIV-1 cell protection assay (XTT dye reduction); assay type: cell-based; details: Human immunodeficiency virus 1, CEM-SS, 144 h
Protocol: HIV-1 Cell Protection Assay
The antiviral activities of potential modulator compounds (test compounds) were determined in HIV-1 cell protection assays using the RF strain of HIV-1, CEM-SS cells, and the XTT dye reduction method (Weislow, O. S. et al., J. Natl. Cancer Inst. 81: 577-586 (1989)). Subject cells were infected with HIV-1 RF virus at an moi of 0.025 to 0.819 or mock infected with medium only and added at 2×10^4 cells per well into 96 well plates containing half-log dilutions of test compounds. Six days later, 50 μl of XTT solution (1 mg/ml XTT tetrazolium and […] phenazine methosulfate) were added to the wells and the plates were reincubated for four hours. Viability, as determined by the amount of XTT formazan produced, was quantified spectrophotometrically by absorbance at 450 nm. Data from CPE assays were expressed as the percent of formazan produced in compound-treated cells compared to formazan produced in wells of uninfected, compound-free cells. […] The therapeutic index was calculated by dividing the cytotoxicity (CC50) by the antiviral activity (EC50).

[3] = strand transfer, read-out: IC50
[4] = HIV-1 RF, CEM-SS cells, XTT dye reduction, six days, read-out: EC50

Structure (SMILES) | IC50 [1, 3] [µM] | EC50 [2, 4] [µM] | EC50 [2] [µM] | IC50 ([1]; IC50, strand transfer) [µM]
O=C1CN(Cc2cn(Cc3ccc(F)cc3)c3cnc(C(=O)NOCc4ccccc4)cc23)CCN1 [Example 102, N-(Benzyloxy)-1-(4-fluorobenzyl)-3-[(3-oxopiperazin-1-yl)methyl]-1H-pyrrolo[2,3-c]pyridine-5-carboxamide] | 0.81 | 0.033 | – | –
CONC(=O)c1cc2ncn(Cc3ccc(F)cc3)c2cn1 [Example 22, 3-(4-Fluorobenzyl)-N-methoxy-3H-imidazo[4,5-c]pyridine-6-carboxamide] | 1.3 | 0.19 | – | –
CN(O)C(=O)c1cc2c(CN3CCNC(=O)C3)cn(Cc3ccc(F)cc3)c2cn1 [Example 114, 1-(4-fluorobenzyl)-N-hydroxy-N-methyl-3-[(3-oxopiperazin-1-yl)methyl]-1H-pyrrolo[2,3-c] pyridine-5-carboxamide] | 0.15 | – | 0.351 | –
CONC(=O)c1cc2c(CN3CC[C@@H]4C(=O)NC[C@@H]4C3)cn(Cc3ccc(F)cc3F)c2cn1 (racemic) [Example 17, rac 1-(2,4-Difluorobenzyl)-N-methoxy-3-{[(3aR*,7aS*)-1-oxooctahydro-5H-pyrrolo[3,4-c]pyridin-5-yl]methyl}-1H-pyrrolo[2,3-c]pyridine-5-carboxamide] | 0.3 | 0.025 | – | –
O=C(c1cc2ccn(Cc3ccc(F)cc3)c2cn1)N(O)CCCO [Example 30, 1-(4-Fluorobenzyl)-N-hydroxy-N-(3-hydroxypropyl)-1H-pyrrolo[2,3-c]pyridine-5-carboxamide] | 0.804 | 0.3 | – | –
COCCOCc1cn(Cc2ccc(F)cc2)c2cnc(C(=O)N(C)O)cc12 [Example 108, 1-(4-Fluorobenzyl)-N-hydroxy-3-[(2-methoxyethoxy)methyl]-N-methyl-1H-pyrrolo[2,3-c]pyridine-5-carboxamide] | 0.0212 | – | 0.334 | –
CCC(CC)NCc1cn(Cc2ccc(F)cc2F)c2cnc(C(=O)NO)cc12 [Example 82, 1-(2,4-Difluorobenzyl)-3-{[(1-ethylpropyl)amino]methyl}-N-hydroxy-1H-pyrrolo[2,3-c]pyridine-5-carboxamide] | 0.634 | 0.023 | – | –
CCOC(=O)N1C2CC[C@@H]1CC(NCc1cn(Cc3ccc(F)cc3F)c3cnc(C(=O)NO)cc13)C2 (stereo in doubt) [Example 97, Ethyl (1R,5S)-3-[({1-(2,4-difluorobenzyl)-5-[(hydroxyamino)carbonyl]-1H-pyrrolo[2,3-c]pyridin-3-yl}methyl)amino]-8-azabicyclo[3.2.1]octane-8-carboxylate] | 0.311 | – | 0.02 | –
O=C(NO)c1cc2ncn(Cc3cccc(F)c3F)c2cn1 [Example 24, 3-(2,3-Difluoro-benzyl)-N-hydroxy-3H-imidazo[4,5-c]pyridine-6-carboxamide] | 1.04 | 0.11 | – | –
O=C(NO)c1cc2c(CNCCC3CCOCC3)cn(Cc3ccc(F)cc3F)c2cn1 [Example 96, 1-(2,4-Difluorobenzyl)-N-hydroxy-3-({[2-(tetrahydro-2H-pyran-4-yl)ethyl]amino}methyl)-1H-pyrrolo[2,3-c]pyridine-5-carboxamide] | 0.511 | 0.03 | – | –
CN1CCN(Cc2cn(Cc3ccc(F)cc3F)c3cnc(C(=O)N(C)O)cc23)CC1 [Example 13] | – | 0.22 | – | 0.695
O=C(NO)c1cc2c(cn1)c(Cc1ccc(F)cc1)cn2Cc1ccc(F)cc1 [Example 32, 1,3-Bis(4-fluorobenzyl)-N-hydroxy-1H-pyrrolo[3,2-c]pyridine-6-carboxamide] | 0.215 | 0.025 | – | –
C[C@@H](OCc1cn(Cc2ccc(F)cc2)c2cnc(C(=O)N(C)O)cc12)c1ccccc1 [Example 119, 1-(4-Fluorobenzyl)-N-hydroxy-N-methyl-3-{[(1R)-1-phenylethoxy]methyl}-1H-pyrrolo[2,3-c]pyridine-5-carboxamide] | 0.039 | 0.505 | – | –
CCN1CCCC1CNCc1cn(Cc2ccc(F)cc2F)c2cnc(C(=O)NOC)cc12 (stereo not shown) [Example 46, 1-(2,4-Difluorobenzyl)-3-({[(1-ethylpyrrolidin-2-yl)methyl]amino}methyl)-N-methoxy-1H-pyrrolo[2,3-c]pyridine-5-carboxamide] | 0.912 | 0.13 | – | –
CN(C)CCNCc1cn(Cc2ccc(F)cc2F)c2cnc(C(=O)NO)cc12 [Example 72, 1-(2,4-Difluorobenzyl)-3-({[2-(dimethylamino)ethyl]amino}methyl)-N-hydroxy-1H-pyrrolo[2,3-c]pyridine-5-carboxamide] | 0.658 | 0.029 | – | –
O=C(NO)c1cc2c(CNCCN3CCCC3)cn(Cc3ccc(F)cc3F)c2cn1 [Example 57, 1-(2,4-Difluorobenzyl)-N-hydroxy-3-{[(2-pyrrolidin-1-ylethyl)amino]methyl}-1H-pyrrolo[2,3-c]pyridine-5-carboxamide] | 0.542 | 0.024 | – | –
O=C(NO)c1cc2c(CN3CCOCC3)cn(Cc3ccc(F)cc3F)c2cn1 [Example 2, 1-(2,4-difluorobenzyl)-N-hydroxy-3-(morpholin-4-ylmethyl)-1H-pyrrolo[2,3-c]pyridine-5-carboxamide] | 0.0523 | 0.068 | – | –
CN(C)CCCNCc1cn(Cc2ccc(F)cc2F)c2cnc(C(=O)NO)cc12 [Example 4] | 0.343 | 0.085 | – | –
O=C(NO)c1cc2c(CNC3CCS(=O)(=O)C3)cn(Cc3ccc(F)cc3F)c2cn1 (stereo not shown) [Example 12, 1-(2,4-Difluorobenzyl)-3-{[(1,1-dioxidotetrahydrothien-3-yl)amino]methyl}-N-hydroxy-1H-pyrrolo[2,3-c]pyridine-5-carboxamide] | 0.036 | 0.019 | – | –
COc1c(C(=O)N(C)O)ncc2c1ccn2Cc1ccc(F)cc1 [Example 44, 1-(4-Fluorobenzyl)-N-hydroxy-4-methoxy-N-methyl-1H-pyrrolo[2,3-c]pyridine-5-carboxamide] | 2.25 | 1.2 | – | –
